Data set [1] relates to MCF7. Nature of the data set: Cytotoxicity against human MCF7 cells assessed as effect on cell viability up to 100 uM after 24 hrs by WST1 assay. The following applies: mcf7, 24 h. In kind it is cell-based.
Data set [2] concerns HUVEC. Kind of data set: Cytotoxicity against HUVEC assessed as effect on cell viability up to 100 uM after 24 hrs by WST1 assay. It is filed as cell-based. The following applies: human.

As for `COC(=O)[C@]1(C)CCC[C@]2(C)c3cc4oc(C)nc4cc3C[C@@H](O)[C@@H]12`, the Activity result in data set [1] and in data set [2] was “Non-Toxic” throughout.
With `CCOC(=O)[C@]1(C)CCC[C@]2(C)c3cc4occc4cc3C[C@@H](O)[C@@H]12`, the Activity result in data set [1] and in data set [2] was “Non-Toxic” throughout.

The values above are taken from ChEMBL document CHEMBL4190167 (Medchemcomm, 2016).
